Data taken from patent US11802107B2, “Compounds and methods of use” (Signum Biosciences, Inc., priority 2017, dated 2023).
≈ marks a conversion by molar mass, not a printed value. Read-outs that look alike come from different tables or passages of the source.

How the values were obtained:
P. acnes (ATCC 6919) [1] = test: Minimal inhibitory concentration (MIC) against P. acnes; type: cell-based, Propionibacterium acnes; details: Cutibacterium acnes, ATCC6919, 72 h, P. acnes ATCC 6919, 10^6 CFU/mL, read-out: MIC
Protocol: To determine minimal inhibitory concentration (MIC), reagents were dissolved in vehicle (5% v/v) and then added to bacteria suspension. P. acnes (ATCC® 6919TM) at 10^6 CFU/mL was incubated with test materials at the concentrations of two-fold serial dilution (0.25-500 μg/mL) and incubated for 72 hours (P. acnes).

P. acnes (ATCC 6919) [2] = test: Minimal bactericidal concentration (MBC) against P. acnes; type: cell-based, Propionibacterium acnes; details: Cutibacterium acnes, ATCC6919; P. acnes 10^7 CFU/mL, in PBS, anaerobic conditions
Balb/C mice = test: Oxazolone-induced delayed-type hypersensitivity (DTH) in vivo model; details: Mus musculus, topical to ears @ 3% w/v, 24 hours, read-out: Edema % inhibition
Protocol: Inbred male Balb/C mice were purchased from Hilltop Lab Animals (Scottdale, PA) and were used between 8 and 10 weeks of age. Mice backs were shaved and 100 μl of 3% v/v Oxazolone (Sigma Aldrich, Cat No. E0753) in acetone/olive oil (4:1) was applied to dorsal skin for sensitization. On Day 7, ears were challenged with 0.5% v/v Oxazolone and 30 minutes after challenge, test materials at 3% w/v were applied to ears (10 μl applied both to the dorsal and ventral surfaces of the mouse ear using a solvent pipette) and 24 hours later, skin thickness (edema) was measured. A 6-mm punch biopsy was obtained from each ear, snap frozen in liquid nitrogen. Ear skin biopsy punches were pulverized using FastPrep®-24 Biopulverizer (MP Biomedical, CatNo. 116004500) and Lysing Matrix A tubes (CatNo. 16910050). Protein extracts were obtained using 500 μL/tissue of cold T-PER buffer (ThermoFisher, CatNo. 78510) with Protease inhibitors (Sigma-Aldich, CatNo. 58820-20TAB). Soluble protein fractions were used to measure cytokine levels (IL-4) using ELISA kit (BD Biosciences® #555232). Results were represented as percent of inhibition relative to unsensitized and sensitized-only treated animals. Vehicle for presently disclosed compounds was 60:40 H2O:EtOH and 1:1 Acetone:EtOH for AN2718. (n=5-15 animals per treatment group).
Compound C was further analyzed at various dosages against 0.4 mg/ear of […] by the above protocol, data representing the average±S.E. of cumulative data from three independent experiments (n=12-15 mice per group) is shown below: […]

IL-8 = test: P. acnes-induced IL-8 on human NHEKs; type: cell-based; details: NHEK, live P. acnes 10^7 CFU, 24 hours, ELISA, read-out: P. acnes-NHEK IL-8 Protein IC50
Protocol: Normal human epidermal keratinocytes (NHEKs) from neonatal donors were obtained from Thermo-Fisher (Cat No. C-001-5C). Cells were cultured in 96-well plates for 24 hours with EpiLife media (Cat No. MEPI500CA) supplemented with keratinocytes growth supplement (Cat No. S0015). On Day 2, media was removed and replaced with supplement-depleted medium for 24 hours. On Day 3, media was removed and cells were pre-treated with test materials ([…]) for 2 hours and later co-treated with test materials and live P. acnes (ATCC® 6919TM) at 10^7 CFU for 24 hours at 37° C. and 5% CO2. After incubation, cell media supernatants were harvested and used to measure pro-inflammatory cytokine levels (IL-8) using ELISA kits (BD Biosciences® #555244). Results were represented as percent of inhibition relative to untreated and P. acnes-only treated cells. IC50 values were determined by non-linear regression analysis using the four-parameter logistic equation.

TNF (TNF-α) = test: P. acnes-induced TNF-α gene on human PBMCs (qPCR); type: cell-based; details: PBMC, PBMCs + live P. acnes 1:1, test material 30 PM, 24 hours, read-out: TNFa-Gene % inhibition
Protocol: (§1) Cryopreserved human Peripheral Blood Mononuclear cells (PBMCs) from healthy adult donors were obtained from Zen Bio, Inc (Cat No. SER-PBMC-F). Cells were cultured in 12-well plates with lymphocyte media (Cat No. LYMPH-1) and incubated with test materials ([…]) and live P. acnes (ATCC® 6919TM) at 1:1 PBMC: P. acnes bacteria ratio for 24 hours at 37° C. and 5% CO2. After incubation, cell media supernatants were harvested and used to measure pro-inflammatory cytokine levels (IL-8, TNF-α, IL-1b, IL-17) using ELISA kits (BD Biosciences® #557966, #555212, #555244; R&D Systems® #DY317). Total RNA was extracted from cells using the RNAqueous® kit (Ambion®; Cat No. 1912) and cDNA was obtained using the High Capacity RNA-to-cDNA kit (Applied Biosystems®; Cat No. 4387406). Quantitative PCR (qPCR) was performed using the TaqMan® Fast Advanced Master Mix (Applied Biosystems®; Cat No. 4444556) and specific TaqMan®-probes human gene primers CXCL8 (IL-8), IL1B (IL-1b), TNF (TNF-α), IL17A (IL-17A) and GAPDH to calculate the relative gene fold expression change per treatment. Gene expression analysis was performed using the comparative Ct method (also known as the 2-[delta][delta]Ct) approach by comparing the Ct values of P. acnes-only treated cells with the untreated samples and normalized to GAPDH gene expression as endogenous housekeeping gene.

IL1B (IL-1b) = test: P. acnes-induced IL-1b gene on human PBMCs (qPCR); type: cell-based; details: PBMC, PBMCs + live P. acnes 1:1, test material 30 PM, 24 hours
Protocol: as §1

IL17A (IL-17A) = test: P. acnes-induced IL-17 gene on human PBMCs (qPCR); type: cell-based; details: PBMC, PBMCs + live P. acnes 1:1, test material 30 PM, 24 hours
Protocol: as §1

CXCL8 (IL-8) = test: P. acnes-induced IL-8 gene on human PBMCs (qPCR); type: cell-based; details: PBMC, PBMCs + live P. acnes 1:1, test material 30 PM, 24 hours
Protocol: as §1

MIC (P. acnes (ATCC 6919) [1]) | Structure (SMILES) | also measured
31 µg/mL (≈ 49 µM) | C/C(=C\CSC[C@H](NC(=O)Nc1ncc(C(=O)O)c(C(F)(F)F)n1)C(=O)O)CCCC(C)CCCC(C)CCCC(C)C (some centres unmarked) [BB] | –
8 µg/mL (≈ 14.2 µM) | C/C(=C\CSCC(Nc1nccc(N(C)CC(=O)O)n1)C(=O)O)CCCC(C)CCCC(C)CCCC(C)C (centres unmarked) [BN] | MBC (P. acnes (ATCC 6919) [2]): 31 µg/mL (≈ 54.9 µM)
4 µg/mL (≈ 7.67 µM) | C/C(=C\CSCC(Nc1ncc(C(=O)O)cn1)C(=O)O)CCCC(C)CCCC(C)CCCC(C)C (centres unmarked) [BH] | MBC (P. acnes (ATCC 6919) [2]): 16 µg/mL (≈ 30.7 µM)
31 µg/mL (≈ 59.4 µM) | C/C(=C\CSC[C@H](Nc1cnc(C(=O)O)cn1)C(=O)O)CCCC(C)CCCC(C)CCCC(C)C (some centres unmarked) [BK] | –
> 250 µg/mL | CC(=O)NC(C(=O)NC(CSC/C=C(\C)CCCC(C)CCCC(C)CCCC(C)C)C(=O)O)C(C)CO (centres unmarked) [K] | –
> 125 µg/mL | CC(C)=CCC/C(C)=C/CC/C(C)=C/CSCC(NC(=O)N1CCCC1C(=O)O)C(=O)O (centres unmarked) [AD] | –
19 µg/mL (≈ 33.1 µM) | C/C(=C\CSCC(NC(=O)C(O)(CC(=O)O)CC(=O)O)C(=O)O)CCCC(C)CCCC(C)CCCC(C)C (centres unmarked) [U] | inhibition in vivo at 3 % strength (Balb/C mice): 18%
> 125 µg/mL | C/C(=C\CSCC(NC(=O)N1CCCCC1C(=O)O)C(=O)O)CCCC(C)CCCC(C)CCCC(C)C (centres unmarked) [AW] | –
> 25 µg/mL | C/C(=C\CSCC(NC(=O)c1ccc(C(=O)O)cc1)C(=O)O)CCCC(C)CCCC(C)CCCC(C)C (centres unmarked) [X] | inhibition in vivo at 3 % strength (Balb/C mice): 15%
– | C[C@H]1C[C@H]2[C@@H]3CCC4=CC(=O)C=C[C@]4(C)[C@@]3(F)[C@@H](O)C[C@]2(C)[C@@]1(O)C(=O)CCl [Clobetasol, reference compound] | IC50 (IL-8): 0.033 µM
32 µg/mL (≈ 57.5 µM) | CC(=O)N[C@@H](CC(=O)O)C(=O)NC(CSC/C=C(\C)CCCC(C)CCCC(C)CCCC(C)C)C(=O)O (some centres unmarked) [J] | inhibition in vivo at 3 % strength (Balb/C mice): 10%
32 µg/mL (≈ 54.3 µM) | CC(=O)NC(Cc1ccccc1)C(=O)NC(CSC/C=C(\C)CCCC(C)CCCC(C)CCCC(C)C)C(=O)O (centres unmarked) [O] | –
125 µg/mL (≈ 237 µM) | C/C(=C\CSC(C)(C)C(NC(=O)CCC(=O)O)C(=O)O)CCCC(C)CCCC(C)CCCC(C)C (centres unmarked) [BO] | –
> 125 µg/mL | C/C(=C\CSCC(Nc1ncccn1)C(=O)O)CCCC(C)CCCC(C)CCCC(C)C (centres unmarked) [BF] | –
> 25 µg/mL | CC(=O)NC(COC(C)(C)C)C(=O)NC(CSC/C=C(\C)CCCC(C)CCCC(C)CCCC(C)C)C(=O)O (centres unmarked) [R] | inhibition in vivo at 3 % strength (Balb/C mice): 24%
125 µg/mL (≈ 224 µM) | CC(=O)NC(CC(=O)NC(CSC/C=C(\C)CCCC(C)CCCC(C)CCCC(C)C)C(=O)O)C(=O)O (centres unmarked) [Q] | inhibition at 30 pM (TNF (TNF-α)): 0%; inhibition at 30 pM (IL1B (IL-1b)): 59%; inhibition at 30 pM (IL17A (IL-17A)): 72%; inhibition at 30 pM (CXCL8 (IL-8)): 14%
> 125 µg/mL | CC(C)=CCC/C(C)=C/CC/C(C)=C/CSCC(NC(=O)COCC(=O)O)C(=O)O (centres unmarked) [AQ] | –
23 µg/mL (≈ 42.7 µM) | C/C(=C\CSC[C@H](NC(=O)N(CC#N)CC(N)=O)C(=O)O)CCCC(C)CCCC(C)CCCC(C)C (some centres unmarked) [BJ] | –
10 µg/mL (≈ 18 µM) | CC(=O)NC(CC(N)=O)C(=O)NC(CSC/C=C(\C)CCCC(C)CCCC(C)CCCC(C)C)C(=O)O (centres unmarked) [P] | –
> 250 µg/mL | CC(=O)NC(C(=O)NC(CSC/C=C(\C)CCCC(C)CCCC(C)CCCC(C)C)C(=O)O)C(C)O (centres unmarked) [N] | –
6 µg/mL (≈ 12 µM) | C/C(=C\CSCC(NC(=O)CCC(N)=O)C(=O)O)CCCC(C)CCCC(C)CCCC(C)C (centres unmarked) [F] | IC50 (IL-8; Homo sapiens): 1.69 µM
